# Legend:
# [1] = tested on: sheep body lice (Bovicola ovis), benzoyl phenyl urea (IGR) resistant; assay: Efficacy long wool lice study, single subcutaneous injection, Merino ewes with 7 months wool growth; conditions: for Geometric efficacy (%) Day 7 / Geometric efficacy (%) Day 14 / Geometric efficacy (%) Day 21 / Geometric efficacy (%) Day 42 / Geometric efficacy (%) Day 84 / Geometric efficacy (%) Day 140: long wool sheep, Henderson-Tilton
# [2] = tested on: sheep body lice (Bovicola ovis), diazinon resistant; assay: Off-shears/short wool lice efficacy study, single subcutaneous dose, Merino sheep; format: in vivo; conditions: for Sheep Body Lice Efficacy Based on Geometric Means Day 7: Day 7 post-treatment; for Sheep Body Lice Efficacy Based on Geometric Means Day 14: Day 14 post-treatment; for Sheep Body Lice Efficacy Based on Geometric Means Day 21: Day 21 post-treatment; for Sheep Body Lice Efficacy Based on Geometric Means Day 41/42: Day 41/42 post-treatment; for Sheep Body Lice Efficacy Based on Geometric Means Day 84: Day 84 post-treatment; for Sheep Body Lice Efficacy Based on Geometric Means Day 140: Day 140 post-treatment
# Description: In this study the efficacy of fluralaner when administered once subcutaneously at doses of 1 and 2 mg/kg body weight within 1 week prior to shearing, within 24 hours after shearing and 6 weeks after shearing against sheep body lice (Bovicola ovis) infestation on Merino sheep was evaluated.
# Fluralaner was administered to sheep in Groups 2 and 3 seven days pre-shearing, Groups 4 and 5 within 24 hours after shearing and Groups 6 and 7 forty-two days post-shearing at either 1 mg/kg (Group 2, 4 and 6) or 2 mg/kg (Group 3, 5 and 7). Group 1 was left untreated as a negative control. All sheep were shorn on Day 0.
# Lice counts were conducted on all sheep on Day −8 to −7 for allocation. Pre-treatment lice counts were conducted on Groups 2 and 3 on Day −8 to −7 (i.e. allocation counts), on Group 4 and 5 on Day −1 (pre-shearing) and on Group 6 and 7 on Day 41 (post-shearing). Post-treatment lice counts were conducted 7, 14, 21, 42, 84 and 140 days±1-day post-treatment. Group 1 was counted on each day that a lice count was conducted on a treated group for comparison purposes. Lice counts were performed as described in Example 1.
# [3] = tested on: biting/chewing lice (Bovicola bovis); assay: Biting lice efficacy study in cattle, natural infestation, single subcutaneous injection; format: in vivo; conditions: 1 mg/kg s.c.
# Description: (§1) This study determined the efficacy (via reductions in total lice counts) of fluralaner in an injectable suspension formulation against natural infestations of cattle sucking (Haematopinus eurysternus, Linognathus vituli) and biting/chewing lice (Bovicola bovis) when applied at a single dose to young, lice infested cattle. Treatment efficacy was determined by whole body lice counts post treatment and comparison of treated and untreated (placebo) group mean lice counts. The naturally acquired louse infestations consisted of 2 species of sucking lice (Haematopinus eurysternus and Linognathus vituli) and the biting louse Bovicola bovis. Each animal was examined in a cattle crush prior to being selected from the parent mob to ensure that more than 30 sucking lice (combined total of both sucking lice species) were present. Fluralaner at a dose level of 1.0 mg/kg bw and Control Product were administered to cattle by subcutaneous injection. The numbers of live adults and live nymphs for each species of lice on each animal were counted at 7-day intervals starting with pre-treatment counts on Day −1 and post-treatment on Days 7, 14, 21, 28, 35, 42, 49 and 56.
# [4] = tested on: cattle sucking lice (Haematopinus eurysternus, Linognathus vituli); assay: Sucking lice efficacy study in cattle, natural infestation, single subcutaneous injection; format: in vivo; conditions: 1 mg/kg s.c.
# Description: as §1
# [5] = tested on: sheep body lice (Bovicola ovis); assay: Persistency determination, lice challenge of treated lice free Merino sheep with 5 months wool growth; format: in vivo; conditions: 3.0 mg/kg s.c., Day 21-28 challenge, counts 7, 14, 21, 42 and 84 days post-challenge
# Description: In this study the persistent efficacy of fluralaner when administered once subcutaneously at doses of 1.0, 2.0 and 3.0 mg/kg body weight against sheep body lice (Bovicola ovis) infestation on Merino sheep with 5 months wool growth was evaluated.
# Fluralaner was administered to sheep in three groups each at 1.0, 2.0 and 3.0 mg fluralaner/kg bodyweight. The dose was administered subcutaneously. Three groups were left untreated as negative control groups.
# From Day 21-28, 49-56 and Day 77-84 post-treatment one group of untreated negative control sheep and one group of sheep treated at 1.0, 2.0 and 3.0 mg/kg were challenged with lice by close confinement with lice infested sheep and manual transfer of lice. Following the challenges lice counts were conducted 7, 14, 21, 42 and 84 days±1-day post-challenge (not all counts conducted for all challenges).
# [6] = 1 mg/kg s.c., treated 7 days pre-shearing
# [7] = 1 mg/kg s.c., treated 42 days post-shearing
# [8] = 1 mg/kg s.c., treated within 24 hours after shearing
# [9] = 2 mg/kg s.c., treated 7 days pre-shearing
# [10] = 2 mg/kg s.c., treated 42 days post-shearing
# [11] = 2 mg/kg s.c., treated within 24 hours after shearing
compound,measurement,setting,value
"Cc1cc(C2=NOC(c3cc(Cl)cc(Cl)c3)(C(F)(F)F)C2)ccc1C(=O)NCC(=O)NCC(F)(F)F (stereo not shown) [Fluralaner, 4-[5-(3,5-dichlorophenyl)-5-trifluoromethyl-4,5-dihydroisoxazol-3-yl]-2-methyl-N-[(2,2,2-trifluoro-ethylcarbamoyl)-methyl]-benzamide]",Geometric efficacy (%) Day 7,[1]; 1.0 mg/kg s.c. once,99.4%
same,Geometric efficacy (%) Day 14,[1]; 1.0 mg/kg s.c. once,99.9%
same,Geometric efficacy (%) Day 21,[1]; 1.0 mg/kg s.c. once,100.0%
same,Geometric efficacy (%) Day 42,[1]; 1.0 mg/kg s.c. once,100.0%
same,Geometric efficacy (%) Day 84,[1]; 1.0 mg/kg s.c. once,100.0%
same,Geometric efficacy (%) Day 140,[1]; 1.0 mg/kg s.c. once,100.0%
same,Geometric efficacy (%) Day 7,[1]; 2.0 mg/kg s.c. once,99.6%
same,Geometric efficacy (%) Day 14,[1]; 2.0 mg/kg s.c. once,100.0%
same,Geometric efficacy (%) Day 21,[1]; 2.0 mg/kg s.c. once,100.0%
same,Geometric efficacy (%) Day 42,[1]; 2.0 mg/kg s.c. once,100.0%
same,Geometric efficacy (%) Day 84,[1]; 2.0 mg/kg s.c. once,100.0%
same,Geometric efficacy (%) Day 140,[1]; 2.0 mg/kg s.c. once,100.0%
same,Geometric efficacy (%) Day 7,[1]; 3.0 mg/kg s.c. once,99.6%
same,Geometric efficacy (%) Day 14,[1]; 3.0 mg/kg s.c. once,100.0%
same,Geometric efficacy (%) Day 21,[1]; 3.0 mg/kg s.c. once,100.0%
same,Geometric efficacy (%) Day 42,[1]; 3.0 mg/kg s.c. once,100.0%
same,Geometric efficacy (%) Day 84,[1]; 3.0 mg/kg s.c. once,100.0%
same,Geometric efficacy (%) Day 140,[1]; 3.0 mg/kg s.c. once,100.0%
same,treatment related adverse events or health problems,"[1]; sheep, 1, 2 and 3 mg/kg s.c., throughout the duration of the trial",No treatment related adverse events or health problems occurred
same,Sheep Body Lice Efficacy Based on Geometric Means Day 7,[2]; [6],93.9%
same,Sheep Body Lice Efficacy Based on Geometric Means Day 14,[2]; [6],97.7%
same,Sheep Body Lice Efficacy Based on Geometric Means Day 21,[2]; [6],99.7%
same,Sheep Body Lice Efficacy Based on Geometric Means Day 41/42,[2]; [6],100.0%
same,Sheep Body Lice Efficacy Based on Geometric Means Day 84,[2]; [6],100.0%
same,Sheep Body Lice Efficacy Based on Geometric Means Day 140,[2]; [6],100.0%
same,Sheep Body Lice Efficacy Based on Geometric Means Day 7,[2]; [7],94.4%
same,Sheep Body Lice Efficacy Based on Geometric Means Day 14,[2]; [7],99.5%
same,Sheep Body Lice Efficacy Based on Geometric Means Day 21,[2]; [7],100.0%
same,Sheep Body Lice Efficacy Based on Geometric Means Day 41/42,[2]; [7],100.0%
same,Sheep Body Lice Efficacy Based on Geometric Means Day 84,[2]; [7],100.0%
same,Sheep Body Lice Efficacy Based on Geometric Means Day 140,[2]; [7],100.0%
same,Sheep Body Lice Efficacy Based on Geometric Means Day 7,[2]; [8],39.5%
same,Sheep Body Lice Efficacy Based on Geometric Means Day 14,[2]; [8],83.1%
same,Sheep Body Lice Efficacy Based on Geometric Means Day 21,[2]; [8],98.8%
same,Sheep Body Lice Efficacy Based on Geometric Means Day 41/42,[2]; [8],99.9%
same,Sheep Body Lice Efficacy Based on Geometric Means Day 84,[2]; [8],100.0%
same,Sheep Body Lice Efficacy Based on Geometric Means Day 140,[2]; [8],100.0%
same,time until efficacy reached the required level (no lice detected),"[2]; 2.0 mg/kg dose rate, all wool lengths except off-shears",≤ 14 days post-treatment
same,Sheep Body Lice Efficacy Based on Geometric Means Day 7,[2]; [9],96.7%
same,Sheep Body Lice Efficacy Based on Geometric Means Day 14,[2]; [9],100.0%
same,Sheep Body Lice Efficacy Based on Geometric Means Day 21,[2]; [9],100.0%
same,Sheep Body Lice Efficacy Based on Geometric Means Day 41/42,[2]; [9],100.0%
same,Sheep Body Lice Efficacy Based on Geometric Means Day 84,[2]; [9],100.0%
same,Sheep Body Lice Efficacy Based on Geometric Means Day 140,[2]; [9],100.0%
same,Sheep Body Lice Efficacy Based on Geometric Means Day 7,[2]; [10],96.8%
same,Sheep Body Lice Efficacy Based on Geometric Means Day 14,[2]; [10],100.0%
same,Sheep Body Lice Efficacy Based on Geometric Means Day 21,[2]; [10],100.0%
same,Sheep Body Lice Efficacy Based on Geometric Means Day 41/42,[2]; [10],100.0%
same,Sheep Body Lice Efficacy Based on Geometric Means Day 84,[2]; [10],100.0%
same,Sheep Body Lice Efficacy Based on Geometric Means Day 140,[2]; [10],100.0%
same,Sheep Body Lice Efficacy Based on Geometric Means Day 7,[2]; [11],86.6%
same,Sheep Body Lice Efficacy Based on Geometric Means Day 14,[2]; [11],97.1%
same,Sheep Body Lice Efficacy Based on Geometric Means Day 21,[2]; [11],99.2%
same,Sheep Body Lice Efficacy Based on Geometric Means Day 41/42,[2]; [11],99.4%
same,Sheep Body Lice Efficacy Based on Geometric Means Day 84,[2]; [11],99.9%
same,Sheep Body Lice Efficacy Based on Geometric Means Day 140,[2]; [11],100.0%
same,viable lice eggs,"[2]; 1 and 2 mg/kg, all three treatment times, out to 140 days post-treatment",no viable lice eggs were detected
same,efficacy against the biting lice B. bovis,[3]; Day 7,91.74%
same,efficacy against the biting lice B. bovis,[3]; by Day 14,100%
same,lice found on treated cattle,[3]; from Day 21 until Day 56,no lice of any species found
same,efficacy (based on Arithmetic Means) against the sucking lice,[4]; Day 7,97.69%
same,efficacy (based on Arithmetic Means) against the sucking lice,[4]; Day 14,99.89%
same,lice found on treated cattle,[4]; from Day 21 until Day 56,no lice of any species found
same,lice or viable lice eggs found after challenge,[5],No lice or viable lice eggs were found

# Reference: patent US20230095926A1, “PARASITE CONTROL IN RUMINANTS” (Intervet Inc., priority 2019, published 2023)
